Patent US11446353B2, “Compositions and methods for the treatment of fungal infections” (priority 2014, dated 2022)

Assays:
[1] = system: Coccidioides posadasii Δcts2/Δard1/Δcts3; assay type: cell-based
[2] = system: Coccidioides posadasii Δcts2/Δard1/Δcts3

With CC/C(=C(\c1ccccc1)c1ccc(OCCN(C)C)cc1)c1ccccc1 [Tamoxifen] the “hit strength in screen” value [1] was “strong positive hit” and the “fungal growth inhibitory properties” value [2] was “strong fungal growth inhibitory properties”.
